According to patent US20080279897A1, “Method of Treating Cellular Damage” (MEDVET SCIENCE PTY. LTD., priority 2005, published 2008):
“Also recorded” adds a separate entry of the source.

Columns and labels:
[1] = test system: NF-κB; test: NF-κB electrophoretic mobility shift assay in HUVEC; format: cell-based, human; conditions: 2.5 μM, gel shift
Protocol: (§1) Nuclear extracts were prepared from EC exposed to NG or HG with or without the indicated treatment. The double-stranded oligonucleotides used as probes in the experiments included 5′-[…]-3′ (SEQ ID NO: 1) which contains a consensus NF-κB binding site in E-selectin promoter (underlined). Gel mobility shift of a consensus NF-κB oligonucleotide was performed by incubating a ^32P-labelled NF-κB probe with 4 μg of nuclear proteins as described previously (Xia et al., 1998, supra).

[2] = test system: VCAM-1; test: Cell surface VCAM-1 expression in HUVEC by flow cytometry; format: cell-based, human; conditions: 2.5 μmol/L, 3 days high glucose
Protocol: (§2) Human umbilical vein EC (HUVEC) and bovine aortic EC (BAEC) were routinely cultured in this laboratory as previously described (Verrier et al., 2004, Circ. Res. 94:1515-1522). In all experiments EC ranging from passage 2-6 were used. For the experimental studies, EC were allowed to reach confluence in the regular growth media. Medium was then changed to (i) EBM (Clonetics, Walkersville, Md.) containing 1% FCS and 5.5 mM glucose (normal glucose, NG); (ii) NG medium supplemented with additional glucose to final concentration of 22 mM (high glucose); or (iii) NG medium containing 16.5 mM L-glucose or mannitol that served as an osmotic control for the high glucose medium.
(§3) After the indicated treatment, HUVECs were incubated with primary monoclonal antibodies to VCAM-1, ICAM-1 and E-selectin or an isotype-matched non-relevant antibody for 30 min. Cells were then incubated with FITC-conjugated secondary antibody and fixed in 2.5% formaldehyde. The expression of cell-surface adhesion molecules was measured as fluorescence intensity by use of a Coulter Epics Profile XL flow cytometer, as described previously (Verrier et al., 2004, supra).

[3] = test system: E-selectin; test: Cell surface E-selectin expression in HUVEC by flow cytometry; format: cell-based, human; conditions: 2.5 μmol/L, 3 days high glucose
Protocol: as §2, §3

[4] = test system: ICAM-1; test: Cell surface ICAM-1 expression in HUVEC by flow cytometry; format: cell-based, human; conditions: 2.5 μmol/L, 3 days high glucose
Protocol: as §2, §3

[5] = test system: PKC; test: PKC activity assay in situ in HUVEC; format: cell-based, human; conditions: 2.5 μmol/L, high glucose
Protocol: PKC activity was measured in situ as described previously (Xia et al., 1996, J. Clin. Invest 98:2018-2026). Briefly, cells were seeded in 24-well plates and exposed to NG or HG for 3 days. After the indicated treatments, total PKC activity was then determined in permeabilized cells in the presence of 10 μM [γ^32P]ATP (5000 cpm/pmol) and the PKC-specific peptide substrate (RKRTLRRL, 200 μM). The activity was then quantified by scintillation counting and normalized to total protein levels.

[6] = test system: SphK; test: SphK activity in HUVEC; format: cell-based, human; conditions: 2.5 μmol/L
Protocol: as §2, with “([…]” for “(Verrier”, “medium. As described previously (Xia et al., 1999, J. Biol. […] The formation of S1P in vivo was measured in the permeabilized cells as previously described (Xia et al., 1998, Proc. Natl. Acad. Sci. U.S.A 95:14196-14201).” for “medium.”

[7] = Glycemic control in STZ-induced diabetic rats; format: in vivo, rat; conditions: insulin pump, within several hours
Protocol: Male Sprague-Dawley rats weighing 270-290 g were housed in a room under controlled temperature conditions (22° C.) and 12/12-hr of light/dark cycles. Diabetes was induced with 80 mg/kg streptozotocin (STZ) (Sigma-Aldrich) dissolved in citrate buffer (20 mM, pH 4.5) that was administered as a single intraperitoneal injection. Control rats were injected with an equivalent volume of the vehicle only. After injection (24 h), diabetes was diagnosed by the development of hyperglycaemia (>14 mmol/L blood glucose). One-half of the diabetic rats were randomly selected to receive insulin treatment (Linplant, one implant/200 g body wt; LinShin, Canada). […] […] All experiments were conducted in accordance with the PC-2 procedure of Institute of Medical and Veterinary Science (IMVS) and approved by the IMVS Animal Ethics Committee.

[8] = test system: SphK; test: SphK activity in aorta and heart of STZ-induced diabetic rats; format: in vivo, rat; conditions: STZ-induced diabetic rats treated with insulin, 2 wk post-onset of diabetes
Protocol: Male Sprague-Dawley rats weighing 270-290 g were housed in a room under controlled temperature conditions (22° C.) and 12/12-hr of light/dark cycles. Diabetes was induced with 80 mg/kg streptozotocin (STZ) (Sigma-Aldrich) dissolved in citrate buffer (20 mM, pH 4.5) that was administered as a single intraperitoneal injection. Control rats were injected with an equivalent volume of the vehicle only. After injection (24 h), diabetes was diagnosed by the development of hyperglycaemia (>14 mmol/L blood glucose). One-half of the diabetic rats were randomly selected to receive insulin treatment (Linplant, one implant/200 g body wt; LinShin, Canada). Blood glucose levels were monitored every 4 days using Glucostix reagent strips (Boehringer Mannheim, Indianapolis, Ind.). Two weeks after the onset of diabetes, rats were killed for the study. […]
(§4) As described previously (Xia et al., 1999, J. Biol. Chem. 274:34499-34505), SphK activity was routinely determined using D-erythro-sphingosine (Biomol, Plymouth Meeting, Pa.) and [γ^32P]ATP (Geneworks, Adelaide, Australia) as substrates, and defined as picomoles of S1P formed per min per mg protein. The formation of S1P in vivo was measured in the permeabilized cells as previously described (Xia et al., 1998, Proc. Natl. Acad. Sci. U.S.A 95:14196-14201).

[9] = test system: sphingosine kinase; test: Sphingosine kinase activity in vitro (vascular endothelial cells); format: cell-based
[10] = test system: SphK; test: SphK activity in BAEC (parental or transfected); format: cell-based, bovine; conditions: BAEC expressing the mutant, 22 mM glucose 3 days
Protocol: as §2
(§5) FLAG-tagged human wild-type SphK1 cDNA and the dominant negative SphK1^G82D were sub-cloned into pcDNA3 plasmids (Invitrogen, Melbourne, Australia) as previous described (Pitson et al., 2000, J. Biol. Chem. 275:33945-33950). Lipofectamine 2000 (Invitrogen) mediated transfection was performed in BAEC according to the manufacturer's protocols. For stable expression, the transfectants were selected in medium containing 800 μg/ml G418 (Invitrogen). The resulting non-clonal pools of G418-resistant transfected cells were then collected and used to avoid clonal variability. The expression of FLAG-tagged transgenes was determined by Westernblot assay with the antibodies against FLAG (M2, Sigma, Clayton, Australia).
as §4

[11] = test system: U937 cells adhering to BAEC; test: Adherence of U937 cells to transfected BAEC; format: cell-based, bovine; conditions: stably transfected BAEC, 22 mM glucose 3 days
Protocol: as §5
U937 cells (CRL 1593.2; ATCC) were grown in RPMI-1640 medium (GIBCO BRL) containing 10% FCS, collected by low-speed centrifugation and resuspended at a density of 2×10^5 cells/ml in medium without FCS. EC were seeded into 24-well plates and cultured with NG or HG medium for 3 days after confluence. After washing twice with warm RPMI-1640 medium, the U937 cell suspension (100 μl/well) was added and incubated for 30 minutes at 37° C. Non-adherent cells were removed by rinsing the plates three times with PBS, and the number of adherent cells was then counted under microscopy with at least 6 fields per well culture being quantified.

[12] = test system: NF-κB; test: NF-κB electrophoretic mobility shift assay in BAEC; format: cell-based, bovine; conditions: gel shift
Protocol: as §5, §1

## CCCCCCCCCCCCC/C=C/[C@@H](O)[C@H](CO)N(C)C [DMS, N′N′-dimethylsphingosine]
[1]
  effect on high glucose-induced NF-κB activation: completely inhibited
[2]
  effect on high glucose-induced increase in VCAM-1 expression: completely abolished
[3]
  effect on high glucose-induced increase in E-selectin expression: completely abolished
[4]
  effect on high glucose-induced increase in ICAM-1 expression: completely abolished
[5]
  inhibitory effect on PKC activity: no inhibitory effect
[6]
  inhibition of high glucose-induced SphK activity: capable of inhibiting

## insulin
[7]
  glycemic control: near euglycemia
[8]
  SphK activity in aorta of diabetic rats: significant reduction; also recorded: completely prevented
  SphK activity in heart of diabetic rats: significant reduction; also recorded: completely prevented
[9]
  inhibitory effect on sphingosine kinase activity in vitro: no inhibitory effect

B1: SphK^G82D: point mutation of human SphK1, dominant-negative mutant, stably expressed in BAEC by transfection (protein, UniProt Q9NYA1 1-384, looked up, variant G82D)
Sphingosine kinase 1: MDPAGGPRGVLPRPCRVLVLLNPRGGKGKALQLFRSHVQPLLAEAEISFTLMLTERRNHARELVRSEELGRWDALVVMSGDDLMHEVVNGLMERPDWETAIQKPLCSLPAGSGNALAASLNHYAGYEQVTNEDLLTNCTLLLCRRLLSPMNLLSLHTASGLRLFSVLSLAWGFIADVDLESEKYRRLGEMRFTLGTFLRLAALRTYRGRLAYLPVGRVGSKTPASPVVVQQGPVDAHLVPLEEPVPSHWTVVPDEDFVLVLALLHSHLGSEMFAAPMGRCAAGVMHLFYVRAGVSRAMLLRLFLAMEKGRHMEYECPYLVYVPVVAFRLEPKDGKGVFAVDGELMVSEAVQGQVHPNYFWMVSGCVEPPPSWKPQQMPPPEEPL
[10]
  SphK activation under high glucose conditions: no SphK activation
[11]
  number of leukocytes adhering to high glucose-stimulated BAEC: profoundly attenuated
[12]
  high glucose-induced NF-κB activation in cells expressing the mutant: incapable of activating NF-κB
